The subject of this test is Clone20 osteoblast Shn3 3'UTR firefly luciferase, 24 h. Put plainly: inhibitors of Schnurri-3 3'UTR luciferase expression – cell-based, luminescence, dry powder, dose response (AID 720696).

Each structure is given as a SMILES string.

As to `Cc1ccc2cc(CN(CC3CCCO3)C(=O)NC3CCCCC3)c(=O)[nH]c2c1C` (stereo not drawn), the half-maximal activity concentration (AC50) is 5.22 µM. `CN(C(=O)COc1ccccc1C(=O)NCCOc1ccccc1)c1ccccc1`: the concentration at half-maximal activity (AC50) was 1.92 µM. On to `CCCOc1ccccc1C1CC(=O)Nc2cc3c(cc21)OCO3` (stereo not drawn), for which the AC50 was 2.16 µM. As to `CCOC(=O)c1ccc(NC(=O)Cn2ncc(Cl)c(Cl)c2=O)cc1`, the AC50 is 2.56 µM. With `COc1cc(CN2CCc3ccccc3C2)ccc1O`, the concentration at half-maximal activity (AC50) was 2.09 µM. Take `CC(=O)Nc1cccc(NC(=O)CSc2ncc(-c3ccc(Cl)cc3)n2Cc2ccco2)c1`: the AC50 is 3.38 µM. As for `CC(=O)N1CCN(C(=O)CCc2cc(C(C)(C)C)c(O)c(C(C)(C)C)c2)CC1`, the half-maximal activity concentration (AC50) is 4.01 µM. Regarding `Cc1cc(N2CCCC2=O)cc(C)c1S(=O)(=O)NCCOc1ccc(C(C)(C)C)cc1`, the AC50 is 0.797 µM. For `CN(C)S(=O)(=O)c1cccc(NC(=O)c2cccc(S(=O)(=O)N3CCc4ccccc43)c2)c1`, the AC50 is 2.41 µM.

`Fc1ccc(-n2nnnc2-c2cnc(-c3cccs3)nc2C(F)(F)F)cc1`: the AC50 was 2.76 µM. On to `CN(C)c1nc(-c2ccccn2)nnc1-c1ccccc1`, for which the AC50 is 2.62 µM. On to `O=c1c2ccccc2nc2n1C(CSCc1ccc(Cl)cc1Cl)CS2` (stereo not drawn), for which the half-maximal activity concentration (AC50) is 2.01 µM. Consider `O=C(c1nnsc1S(=O)c1ccc(Cl)cc1)N1CCOCC1` (stereo not drawn), for which the half-maximal activity concentration (AC50) is 5.08 µM. As to `COc1ccc(NC(=O)c2nc(S(=O)(=O)Cc3cccc(C)c3)ncc2Cl)c(OC)c1`, the AC50 is 3.86 µM. For `COc1ccc(Nc2nc(N3CCCCC3)c3ccccc3n2)cc1`, the AC50 was 1.1 µM. Under `CC(C)[C@H](NC(=O)OC(C)(C)C)c1nnc(S(=O)(=O)Cc2c(F)cccc2Cl)o1` stands 17.1 µM; under `COc1cc2ncnc(N[C@H](C)c3ccccc3)c2cc1OC`, 5.13 µM. As for `COc1ccc2c(c1)c(CC(=O)Nc1cc(C)ccc1C)c(C)n2C(=O)c1ccc(Cl)cc1`, the figure is 3.24 µM; as for `COc1ccc(NS(=O)(=O)c2ccc(C(=O)N3CCCCCC3)cc2)cc1`, 3.7 µM; as for `CCOC(=O)C1CCN(C(=O)c2ccc(OCC(=O)Nc3cccc(C(F)(F)F)c3)c(OC)c2)CC1`, 1.4 µM.

Turning to `CCCc1nnc(NC(=O)c2nc(S(=O)(=O)Cc3ccc(C)cc3)ncc2Cl)s1`, the AC50 was 3.83 µM. In the case of `CC(C)(C)NC(=O)CSc1nc2ccc(NC(=O)CSc3nnnn3Cc3ccccc3)cc2s1`, the AC50 is 2.14 µM. For the molecule `Nc1nonc1C(=O)NCCNCc1cc(Br)ccc1OCc1ccc(F)cc1`, the AC50 is 2.03 µM.

As to `COc1ccccc1N1CCN(c2ncc(C(=O)N3CCN(c4cccc(Cl)c4)CC3)c3ccccc23)CC1`, the concentration at half-maximal activity (AC50) is 2.54 µM.

Regarding `Cc1cc2c(cc(C(=O)N3CCC(C(=O)NC4CCCC4)CC3)n2Cc2c(F)cccc2Cl)o1`, the concentration at half-maximal activity (AC50) is 21.3 µM. Turning to `O=C1CSc2ccc(C(=O)Nc3cccc(S(=O)(=O)Nc4ccc(Br)cc4)c3)cc2N1`, the AC50 is 1.99 µM. Regarding `CN(CC(=O)Nc1cccc(S(=O)(=O)N2CCOCC2)c1)CC(=O)Nc1ccc(Cl)c(C(F)(F)F)c1`, the half-maximal activity concentration (AC50) was 0.877 µM.

As for `CCOC(=O)C1(Cc2ccc(Cl)cc2)CCN(C(C)Cc2ccc(O)c(OC)c2)CC1` (stereo not drawn), the AC50 was 1.62 µM.

Broadly, the AC50 is the concentration at which the activity in the assay is half-maximal.

(Values after PubChem BioAssay AID720696 (Broad Institute, 2013).)
